Data set [1] concerns absorption of sodium from the intestinal lumen. In words: Inhibition of intestinal sodium absorption: rat urinary sodium and fecal form 16 h post-dose. The format is in vivo, Sprague-Dawley rats. Particulars: for response vs control in vivo at 10 mg/kg / response vs control in vivo at 3 mg/kg: urine 16 h post-dose, read-out: uNa Result, uNa (% of vehicle); for FFS (fecal form score): 16 h post-dose, scale 1-5, group average. The method in brief: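 Eight-week-old Sprague-Dawley rats (n=6) dosed by oral gavage with compound or water vehicle, then kept in metabolic cages with chow and water ad libitum. At 16 h post-dose, urinary sodium measured by ion chromatography and expressed as percent of vehicle mean; fecal form scored 1–5 and averaged over two observations.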

The nature of data set [2]: Fecal recovery. Particulars: male, Sprague-Dawley, faeces; rat, oral gavage 1 mg/kg, collection time 48 h. It counts as in vivo, Sprague Dawley rats. As for the experimental part:
Three male Sprague Dawley rats were administered 1 mg/kg test compound by oral gavage. Feces were collected from study animals from 0-48 or 0-72 hours after dosing, dried by lyophilization, and homogenized. Replicate aliquots of 40-60 mg each were subjected to extraction/protein precipitation with 7:1 acetonitrile:water and centrifuged. Supernatants were diluted 1:10 in 50:50 acetonitrile:water prior to analysis by LC-MS/MS. Compound concentrations, determined by interpolation from a standard calibration curve prepared in blank feces matrix, were converted to the percentage of dosed material recovered by taking into account the total collected fecal matter. The percent recovery for each rat was reported as the mean of the calculations from replicate samples. The overall percent recovery (Fecal Recovery [%]) was reported as the mean percent recovery from three rats. Accurate quality control sample recoveries were confirmed in each run and extraction efficiency was periodically verified.

Data set [3] concerns the target T1, human NHE3 (Homo sapiens, UniProt P48764).
T1 sequence (P48764 26-834): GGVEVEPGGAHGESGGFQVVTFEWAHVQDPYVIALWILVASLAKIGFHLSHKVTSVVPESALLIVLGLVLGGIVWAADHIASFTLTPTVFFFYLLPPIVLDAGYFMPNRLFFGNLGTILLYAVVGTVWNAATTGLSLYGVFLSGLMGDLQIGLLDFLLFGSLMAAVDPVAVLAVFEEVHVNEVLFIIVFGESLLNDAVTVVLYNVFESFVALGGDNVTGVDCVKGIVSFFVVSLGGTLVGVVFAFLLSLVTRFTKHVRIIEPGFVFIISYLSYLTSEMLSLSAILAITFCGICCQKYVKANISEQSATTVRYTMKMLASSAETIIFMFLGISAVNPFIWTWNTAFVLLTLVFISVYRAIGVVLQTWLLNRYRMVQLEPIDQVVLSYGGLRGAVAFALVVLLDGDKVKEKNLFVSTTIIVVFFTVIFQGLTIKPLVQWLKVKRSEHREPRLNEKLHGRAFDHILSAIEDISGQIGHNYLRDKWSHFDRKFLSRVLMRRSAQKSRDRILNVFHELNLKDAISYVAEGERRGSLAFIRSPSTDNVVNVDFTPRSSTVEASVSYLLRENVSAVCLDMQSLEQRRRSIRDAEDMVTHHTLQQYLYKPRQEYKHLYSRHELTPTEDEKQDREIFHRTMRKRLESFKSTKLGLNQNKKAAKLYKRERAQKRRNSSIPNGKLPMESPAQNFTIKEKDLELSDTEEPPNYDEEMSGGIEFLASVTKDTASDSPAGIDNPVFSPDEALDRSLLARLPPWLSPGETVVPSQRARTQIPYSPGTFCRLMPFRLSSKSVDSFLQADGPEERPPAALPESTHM
The data set is described as follows: Cell-based assay of NHE-3 activity (pre-incubation inhibition), human. The note with it: for IC50: PS120 fibroblasts stably expressing human NHE3, 10 min pre-incubation with 0-30 μM test compound, read-out: pIC50 (human Preincubation assay) (converted); for % inhibition (human Preincubation assay): PS120 fibroblasts stably expressing human NHE3, pre-incubation with test compound.

Structures are written as SMILES.

As to `CN(C)[C@H]1Cc2c(Cl)cc(Cl)cc2[C@@H]1Oc1ccc(S(=O)(=O)NCCOCCOCCNC(=O)CCC(C)(N)CCC(=O)NCCOCCOCCNS(=O)(=O)c2ccc(O[C@H]3c4cc(Cl)cc(Cl)c4C[C@@H]3N(C)C)cc2)cc1` [Example 11, 4-amino-N1,N7-bis(2-(2-(2-(4-((1S,2S)-4,6-dichloro-2-(dimethylamino)-2,3-dihydro-1H-inden-1-yloxy)phenylsulfonamido)ethoxy)ethoxy)ethyl)-4-methylheptanediamide], the response vs control in vivo at 10 mg/kg in data set [1] (oral gavage 10 mg/kg) was in the range of 35 to 75%. Moreover, in data set [2], the dose excreted stood at 82.1%. For the same compound, in data set [3], the IC50 was less than 100 nM and the “% inhibition (human Preincubation assay)” value is “C (>70%)”.
For `N[C@@H]1CCCN([C@H]2Cc3c(Cl)cc(Cl)cc3[C@@H]2Oc2ccc(S(=O)(=O)NCCOCCOCCNC(=O)NCCCCNC(=O)NCCOCCOCCNS(=O)(=O)c3ccc(O[C@H]4c5cc(Cl)cc(Cl)c5C[C@@H]4N4CCC[C@@H](N)C4)cc3)cc2)C1` [Example 3, (S,S,R)—N,N′-(10,17-dioxo-3,6,21,24-tetraoxa-9,11,16,18-tetraazahexacosane-1,26-diyl)bis(4-((1S,2S)-2-((R)-3-aminopiperidin-1-yl)-4,6-dichloro-2,3-dihydro-1H-inden-1-yloxy)benzenesulfonamide)] the same measures were 35 to 75%, 69.2%, less than 100 nM and “C (>70%)”.
Turning to `O=C(NCCCCNC(=O)NCCOCCOCCNS(=O)(=O)c1ccc(O[C@H]2c3cc(Cl)cc(Cl)c3C[C@@H]2N2CC[C@@H](O)C2)cc1)NCCOCCOCCNS(=O)(=O)c1ccc(O[C@H]2c3cc(Cl)cc(Cl)c3C[C@@H]2N2CC[C@@H](O)C2)cc1` [Example 30], the response vs control in vivo at 3 mg/kg in data set [1] (oral gavage 3 mg/kg) lay in the range of 35 to 75%. In data set [2], this compound displayed a dose excreted of 66.8%. In addition, in data set [3], the IC50 was less than 100 nM and the “% inhibition (human Preincubation assay)” value is listed as “C (>70%)”.
Turning to `CN(C)[C@H]1Cc2c(Cl)cc(Cl)cc2[C@@H]1Oc1ccc(S(=O)(=O)NCCOCCOCCNC(=O)COCC(=O)NCCOCCOCCNS(=O)(=O)c2ccc(O[C@H]3c4cc(Cl)cc(Cl)c4C[C@@H]3N(C)C)cc2)cc1` [Example 9, 2,2′-oxybis(N-(2-(2-(2-(4-((1S,2S)-4,6-dichloro-2-(dimethylamino)-2,3-dihydro-1H-inden-1-yloxy)phenylsulfonamido)ethoxy)ethoxy)ethyl)acetamide)], in data set [1] (oral gavage 3 mg/kg), the “FFS (fecal form score)” value stood at 2 and the response vs control in vivo at 3 mg/kg lay within 35 to 75%. Moreover, in data set [2], the dose excreted was 65.7%. In addition, in data set [3], the IC50 is less than 100 nM and the “% inhibition (human Preincubation assay)” value is reported as “C (>70%)”.
With `CN(C)[C@H]1Cc2c(Cl)cc(Cl)cc2[C@@H]1Oc1ccc(S(=O)(=O)NCCOCCOCCNC(=O)NCCCCNC(=O)NCCOCCOCCNS(=O)(=O)c2ccc(O[C@H]3c4cc(Cl)cc(Cl)c4C[C@@H]3N(C)C)cc2)cc1` [Example 1, (S,S)—N,N′-(10,17-dioxo-3,6,21,24-tetraoxa-9,11,16,18-tetraazahexacosane-1,26-diyl)bis(4-((1S,2S)-4,6-dichloro-2-(dimethylamino)-2,3-dihydro-1H-inden-1-yloxy)benzenesulfonamide)], in data set [1] (oral gavage 10 mg/kg), the “FFS (fecal form score)” value stood at 1 and the response vs control in vivo at 10 mg/kg is less than 35%. In data set [2], this compound gave a dose excreted of 87.7%. In data set [3], the IC50 is less than 100 nM and the “% inhibition (human Preincubation assay)” value is recorded as “C (>70%)”.
Consider `O=C(NCCCCNC(=O)NCCOCCOCCOCCNS(=O)(=O)c1ccc(O[C@H]2c3ccccc3C[C@@H]2N2CCCCC2)cc1)NCCOCCOCCOCCNS(=O)(=O)c1ccc(O[C@H]2c3ccccc3C[C@@H]2N2CCCCC2)cc1` [Example 16], for which, in data set [1] (oral gavage 10 mg/kg), the response vs control in vivo at 10 mg/kg is less than 35%. Also, in data set [3], the IC50 was less than 100 nM and the “% inhibition (human Preincubation assay)” value is recorded as “C (>70%)”.
For the compound `CN(C)[C@H]1Cc2ccccc2[C@@H]1Oc1ccc(S(=O)(=O)NCCOCCOCCNC(=O)NCCCCNC(=O)NCCOCCOCCNS(=O)(=O)c2ccc(O[C@H]3c4ccccc4C[C@@H]3N(C)C)cc2)cc1` [Example 20], in data set [1] (oral gavage 10 mg/kg), the response vs control in vivo at 10 mg/kg was in the range of 35 to 75%. For the same compound, in data set [3], the IC50 is less than 100 nM and the “% inhibition (human Preincubation assay)” value is “C (>70%)”.
On to `O=C(NCCCCNC(=O)NCCOCCOCCNS(=O)(=O)c1ccc(O[C@H]2c3ccccc3C[C@@H]2N2CCCCC2)cc1)NCCOCCOCCNS(=O)(=O)c1ccc(O[C@H]2c3ccccc3C[C@@H]2N2CCCCC2)cc1` [Example 14], for which, in data set [1] (oral gavage 10 mg/kg), the response vs control in vivo at 10 mg/kg was 35 to 75%. In data set [3], the IC50 is less than 100 nM and the “% inhibition (human Preincubation assay)” value is “C (>70%)”.
Taken in the same sequence, the figures for `O=C(NCCCCNC(=O)NCCOCCOCCNS(=O)(=O)c1ccc(O[C@H]2c3cc(Cl)cc(F)c3C[C@@H]2N2CCCCC2)cc1)NCCOCCOCCNS(=O)(=O)c1ccc(O[C@H]2c3cc(Cl)cc(F)c3C[C@@H]2N2CCCCC2)cc1` [Example 24] were greater than 75%, less than 100 nM and “C (>70%)”.
Turning to `O=C(NCCCCNC(=O)NCCOCCOCCNS(=O)(=O)c1ccc(O[C@H]2c3cc(Cl)cc(F)c3C[C@@H]2N2CC[C@@H](O)C2)cc1)NCCOCCOCCNS(=O)(=O)c1ccc(O[C@H]2c3cc(Cl)cc(F)c3C[C@@H]2N2CC[C@@H](O)C2)cc1` [Example 4, (S,S,R)—N,N′-(10,17-dioxo-3,6,21,24-tetraoxa-9,11,16,18-tetraazahexacosane-1,26-diyl)bis(4-((1S,2S)-6-chloro-4-fluoro-2-((R)-3-hydroxypyrrolidin-1-yl)-2,3-dihydro-1H-inden-1-yloxy)benzenesulfonamide)], in data set [1] (oral gavage 10 mg/kg), the “FFS (fecal form score)” value stood at 1 and the response vs control in vivo at 10 mg/kg is greater than 75%. Also, in data set [3], the IC50 is less than 100 nM and the “% inhibition (human Preincubation assay)” value is “C (>70%)”.

These data come from patent US10376481B2, “Compounds and methods for inhibiting NHE-mediated antiport in the treatment of disorders associated with fluid retention or salt overload and gastrointestinal tract disorders” (ARDELYX, INC, priority 2012, dated 2019).
